Data: PubChem BioAssay AID2060355 (Molecular Pharmacology Branch, DTP, NCI, 2025)

Tested on: 485368-065-R4-J2-PDC spheroids with HUVEC/MSC, viability
Test: Anticancer human tumor 485368-065-R4-J2-PDC patient-derived pancreatic carcinoma cell line growth inhibition [TAK]
Details: for IC50: curve of first compound; for viability, T/C: stronger effect = lower value
In short: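 Drug combinations, each paired with TAK-243 or ipatasertib, were tested on multi-cell spheroids of 60% malignant cells, 25% HUVEC and 15% hMSC. Top concentrations were at or near the clinical Cmax (10 microM if undetermined), decreasing by half-log; viability is given as % test/control.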

[1] = second compound 0.3 µM, first compound 0.0316 µM
[2] = second compound 0.3 µM, first compound 0.1 µM
[3] = second compound 0.3 µM, first compound 0.316 µM
[4] = second compound 0.3 µM, first compound 1 µM
[5] = second compound 0.949 µM, first compound 0.0316 µM
[6] = second compound 0.949 µM, first compound 0.1 µM
[7] = second compound 0.949 µM, first compound 0.316 µM
[8] = second compound 0.949 µM, first compound 1 µM
[9] = second compound 3 µM, first compound 0.0316 µM
[10] = second compound 3 µM, first compound 0.1 µM
[11] = second compound 3 µM, first compound 0.316 µM
[12] = second compound 3 µM, first compound 1 µM
[13] = second compound 9.49 µM, first compound 0.0316 µM
[14] = second compound 9.49 µM, first compound 0.1 µM
[15] = second compound 9.49 µM, first compound 0.316 µM
[16] = second compound 9.49 µM, first compound 1 µM
[17] = second compound 30 µM, first compound 0.0316 µM
[18] = second compound 30 µM, first compound 0.1 µM
[19] = second compound 30 µM, first compound 0.316 µM
[20] = second compound 30 µM, first compound 1 µM
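Further: spheroids exposed to compounds for seven days before readout.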
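Wherever viability, T/C is given: 100% = DMSO vehicle control wells.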

SMILES	IC50 (second compound 0.3 µM) [nM]	IC50 (second compound 0.949 µM) [nM]	IC50 (second compound 3 µM) [nM]	IC50 (second compound 9.49 µM) [nM]	IC50 (second compound 30 µM) [nM]	viability, T/C [1] [%]	viability, T/C [2] [%]	viability, T/C [3] [%]	viability, T/C [4] [%]	viability, T/C [5] [%]	viability, T/C [6] [%]	viability, T/C [7] [%]	viability, T/C [8] [%]	viability, T/C [9] [%]	viability, T/C [10] [%]	viability, T/C [11] [%]	viability, T/C [12] [%]	viability, T/C [13] [%]	viability, T/C [14] [%]	viability, T/C [15] [%]	further results
COc1c(OCCCN2CCOCC2)ccc2c3n(c(=NC(=O)c4cnc(N)nc4)nc12)CCN3 + CC(C)NCC(C(=O)N1CCN(c2ncnc3c2C(C)CC3O)CC1)c1ccc(Cl)cc1	133	161	75.6	45.8	15.1	94.5	55.6	35.1	31.2	84.6	61.1	34.3	33.2	66.5	45.6	31.5	31.2	56.6	37.2	28.4	viability, T/C (second compound 0.3 µM, first compound 0.00316 µM): 91.7%; viability, T/C (second compound 0.3 µM, first compound 0.01 µM): 76.2%; viability, T/C (second compound 0.949 µM, first compound 0.00316 µM): 96.3%; viability, T/C (second compound 0.949 µM, first compound 0.01 µM): 100%; viability, T/C (second compound 3 µM, first compound 0.00316 µM): 95.9%; viability, T/C (second compound 3 µM, first compound 0.01 µM): 86.8%; viability, T/C (second compound 9.49 µM, first compound 0.00316 µM): 81%; viability, T/C (second compound 9.49 µM, first compound 0.01 µM): 72.8%; viability, T/C [16]: 28%; viability, T/C (second compound 30 µM, first compound 0.00316 µM): 60.4%; viability, T/C (second compound 30 µM, first compound 0.01 µM): 56.5%; viability, T/C [17]: 38.8%; viability, T/C [18]: 29.8%; viability, T/C [19]: 25.3%; viability, T/C [20]: 26.3%
Cc1nc(NC(=O)N2CCCC2C(N)=O)sc1-c1ccnc(C(C)(C)C(F)(F)F)c1 (stereo not given) + CC(C)NCC(C(=O)N1CCN(c2ncnc3c2C(C)CC3O)CC1)c1ccc(Cl)cc1	> 10000	9660	7350	2670	1220	88.2	79.8	81.9	88.3	93.9	92	102	93.5	95.1	92.2	86	73.7	80.3	85.2	74.1	viability, T/C (second compound 0.3 µM, first compound 3.16 µM): 75.9%; viability, T/C (second compound 0.3 µM, first compound 10 µM): 51.1%; viability, T/C (second compound 0.949 µM, first compound 3.16 µM): 73.4%; viability, T/C (second compound 0.949 µM, first compound 10 µM): 49.3%; viability, T/C (second compound 3 µM, first compound 3.16 µM): 64.3%; viability, T/C (second compound 3 µM, first compound 10 µM): 44.8%; viability, T/C [16]: 66%; viability, T/C (second compound 9.49 µM, first compound 3.16 µM): 46.8%; viability, T/C (second compound 9.49 µM, first compound 10 µM): 37.2%; viability, T/C [17]: 71.5%; viability, T/C [18]: 71.2%; viability, T/C [19]: 59.5%; viability, T/C [20]: 53.5%; viability, T/C (second compound 30 µM, first compound 3.16 µM): 39.7%; viability, T/C (second compound 30 µM, first compound 10 µM): 28.3%
